Laboratory results: patent US4289776A, “Xanthine derivatives” (Hoechst Aktiengesellschaft, priority 1973, dated 1981)
≈ marks a conversion by molar mass, not a printed value. Like-named read-outs stand apart in the source and are kept apart here.

Key:
[1] = Solubility; format: physicochemical; details: for solubility: water, 25° C.
[2] = system: bronchospasm against acrotonine; assay: Broncholytic effect at the narcotized guinea-pig, bronchospasm by acrotonine (so in the source); format: in vivo; details: 2 min. i.p.
Protocol: (§1) 2. Broncholytic effect at the narcotized guinea-pig
(§2) This test was performed according to H. Konsett and R. Rossler ("Archiv exp. Path. Pharmak." vol. 195 (1940), page 71).

[3] = Toxicity in the mouse (LD50); details: in vivo
Protocol: The toxicity was determined as LD50 --range or as LD50 according to Litchfield and Wilcoxon ("J. Pharmacol. exp. Ther." 97 (1949), page 399) in the mouse.

[4] = system: bronchospasm against histamine; assay: Broncholytic effect at the narcotized guinea-pig, bronchospasm by histamine; format: in vivo; details: for change in vivo at 3 mg/kg: 3 mg/kg i.v.; for change in vivo at 10 mg/kg: 10 mg/kg i.v.; for Broncholytic effect against histamine compared with sample 8: guinea pig, in vivo
Protocol: as §1, §2

[5] = system: human blood; assay: Fibrinolytic effect in vitro, Hanging-Clot-test; format: biochemical; details: for Minimum concentration for partial lysis / Minimum concentration for complete lysis: human blood
Protocol: This effect was measured by the Hanging-Clot-test according to K. N. von Kaulla ("Journ. med. Chem." vol. 8 (1965), page 164) in using human blood. The incubation time was 24 or 48 hours.

[6] = system: bronchospasm against acetylcholine; assay: Broncholytic effect at the narcotized guinea-pig, bronchospasm by acetylcholine; format: in vivo; details: Cavia porcellus, iv, 2 min, 2 min. i.p.; for change in vivo at 3 mg/kg: 3 mg/kg i.v.; for change in vivo at 10 mg/kg: 10 mg/kg i.v.
Protocol: as §1, §2

[7] = system: muscular blood perfusion; assay: Muscular blood perfusion by fluvography at the cat (i.v.); format: in vivo
Protocol: (§3) Animal tests were carried out with various oxoalkylxanthine derivatives, in which the toxicity in the mouse, the increase of cerebral and muscular blood perfusion at the cat and the fibrinolytic effect in vitro in the Hanging-Clot-test were measured. Furthermore the broncholytic effect of various compounds was tested.
(§4) 1. Cerebral and muscular blood perfusion by fluvography
(§5) These tests were performed at the cat according to K. Popendiker, I. Boksay and V. Bollmann ("Arzneimittel Forschung" vol. 21 (1971), page 1160).
(§6) The values obtained in the mentioned test 1 are given as Δλ and as half-life values in Table 2 and the results of tests 2 to 5 are enumerated in Table 3. In Table 2 Δλ is the change of blood perfusion.

[8] = system: cerebral blood perfusion; assay: Cerebral blood perfusion by fluvography at the cat (i.v.); format: in vivo
Protocol: as §3, §4, §5, §6

[9] = system: isolated trancheal chain; assay: Broncholytic effect at the isolated tracheal chain (isoprenaline reaction)
Protocol: 3. Broncholytic effect at the isolated trancheal chain
This test was performed according to J. C. Castillo and E. J. de Beer ("J. Pharm. Ther." vol. 90 (1947), page 104).

[10] = 10 mg/kg i.v., sample in propanediol, sample 1: Longtime effect (footnote 1)
[11] = ip, read-out: Toxicity (LD50-range or LD50)
[12] = Cavia porcellus, iv, 2 min, 2 min. i.p., sample in propanediol
[13] = Cavia porcellus, iv, 2 min, 2 min. i.p.
[14] = 2 mg/kg i.v. vs sample 8 at 5 mg/kg

Structure (SMILES)	Solubility in dimethyl sulphoxide [1]	Solubility in dimethylformamide [1]	Solubility in ethanol [1]	LD50 [3, 11]	Fibrinolytic effect relative to comparison sample 8 [5]	Change of the bronchospasm in % against acrotonine ([2]; 3 mg/kg i.v.)	Change of the bronchospasm in % against acrotonine ([2]; 10 mg/kg i.v.)	change in vivo at 3 mg/kg [4, 13]	change in vivo at 10 mg/kg [4, 13]	Muscular blood perfusion Δλ (change of blood perfusion) ([7]; 1 mg/kg i.v.)	Muscular blood perfusion half-life ([7]; 5 mg/kg i.v.)	Muscular blood perfusion Δλ (change of blood perfusion) ([7]; 5 mg/kg i.v.)	Cerebral blood perfusion half-life ([8]; 1 mg/kg i.v.)	Cerebral blood perfusion Δλ (change of blood perfusion) ([8]; 1 mg/kg i.v.)	Cerebral blood perfusion half-life ([8]; 5 mg/kg i.v.)	Cerebral blood perfusion Δλ (change of blood perfusion) ([8]; 5 mg/kg i.v.)	change in vivo at 10 mg/kg [6]	Muscular blood perfusion Δλ (change of blood perfusion) ([7]; 2 mg/kg i.v.)	Cerebral blood perfusion half-life ([8]; 2 mg/kg i.v.)	Cerebral blood perfusion Δλ (change of blood perfusion) ([8]; 2 mg/kg i.v.)	further results
CCCCCCn1cnc2c1c(=O)n(CCCCC(C)=O)c(=O)n2C [Example 2, 1-(5-Oxohexyl)-3-methyl-7-n-hexyl-xanthine]	over 10%	over 10%	over 10%	–	–	–	–	–	–	–	–	–	–	–	–	–	–	–	–	–	Solubility in water (in words) [1]: only sparingly soluble in water
CC(=O)CCCCn1c(=O)c2c(ncn2CC(C)C)n(C)c1=O [Example 3, 1-(5-oxohexyl)-3-methyl7-isobutyl-xanthine]	over 10%	over 10%	over 10%	–	–	–	–	–	–	–	–	–	–	–	–	–	–	–	–	–	–
CCCn1c(=O)c2c(ncn2CCCCC(C)=O)n(C)c1=O [Sample 1, 1-n-Propyl-3-methyl-7-(5-oxohexyl)-xanthine]	over 10%	over 10%	over 10%	100 to 250 mg/kg	two times as strong	–	–	–	–	–	–	–	–	–	–	–	–	–	–	–	Change of the bronchospasm in % against acrotonine ([2]; 3 mg/kg i.v., sample in propanediol): -40%; Change of the bronchospasm in % against acrotonine [2, 10]: -82%; change in vivo at 3 mg/kg [4, 12]: -63%; change in vivo at 10 mg/kg [4, 12]: -73%; Minimum concentration for partial lysis ([5]; 24 hours incubation): 40 mmol; Minimum concentration for complete lysis ([5]; 48 hours incubation (bracket)): 20 mmol; change in vivo at 3 mg/kg ([6]; sample in propanediol): -33%; change in vivo at 10 mg/kg ([6]; sample in propanediol): -55%
CC(=O)CCCCn1cnc2c1c(=O)n(CC(C)C)c(=O)n2C [Sample 2, 1-isobutyl-3-methyl-7-(5-oxohexyl)-xanthine]	–	–	–	250 to 500 mg/kg	–	-20%	-47%	-80%	-73%	0	0.60 min	+0.05	1.0 min	+1.85	14.3 min	+3.45	-29%	–	–	–	Cerebral blood perfusion relative to comparison sample 8 ([8]; 5 mg/kg i.v.): about four times stronger; Half-life (cerebral) relative to comparison sample 8 ([8]; 5 mg/kg i.v.): more than five times longer; Cerebral blood perfusion compared with sample 8 (in words) ([8]; i.v.): stronger and longer cerebral blood perfusion
CCCCCCn1c(=O)c2c(ncn2CCCCC(C)=O)n(C)c1=O [Sample 3, I-(n-hexyl)-3-methyl-7-(5-oxohexyl)-xanthine]	–	–	–	250 to 500 mg/kg	–	-50%	-100%	-52%	-90%	-0.05	–	–	0.4 min	+0.97	–	–	-85%	0	7.0 min	+1.45	Broncholytic effect against histamine compared with sample 8 [4]: improved broncholytic effect against histamine; Muscular blood perfusion half-life ([7]; 1 mg/kg i.v.): 3.30 min; Cerebral blood perfusion relative to comparison sample 8 [8, 14]: about two times as strong; Half-life (cerebral) relative to comparison sample 8 [8, 14]: about three times as long
CCCn1cnc2c1c(=O)n(CCCCC(C)=O)c(=O)n2C [Sample 4, 1-(5-Oxohexyl)-3-methyl-7-propyl-xanthine]	over 10%	–	over 10%	–	two times as strong	-83%	-93%	-75%	-86%	+0.13	3.70 min	+0.08	4.0 min	+4.33	14.7 min	+13.00	-75%	+0.07	5.8 min	+6.33	solubility [1]: ~32 mg/mL (≈ 104 mM); Inhibition of isoprenaline reaction in % ([9]; concentration 3 × 10^-5): 94%; Inhibition of isoprenaline reaction in % ([9]; concentration 3 × 10^-6): 2%; Inhibition of isoprenaline reaction in % ([9]; concentration 10^-4): 100%; Inhibition of isoprenaline reaction in % ([9]; concentration 10^-5): 20%; LD50 ([3]; iv, read-out: Toxicity (LD50)): 107 mg/kg; LD50 ([3]; po, per os, read-out: Toxicity (LD50)): 860 mg/kg; Broncholytic effect against histamine compared with sample 8 [4]: improved broncholytic effect against histamine; Muscular blood perfusion half-life ([7]; 1 mg/kg i.v.): 3.70 min; Muscular blood perfusion half-life ([7]; 2 mg/kg i.v.): 0.80 min; Muscular blood perfusion compared with sample 8 (in words) ([7]; i.v., corresponding dosages): stronger muscular blood perfusion; Minimum concentration for complete lysis ([5]; 24 hours incubation): 50 mmol; Minimum concentration for complete lysis ([5]; 48 hours incubation (bracket)): 25 mmol; Cerebral blood perfusion compared with sample 8 (in words) ([8]; i.v.): longer cerebral blood perfusion; Cerebral blood perfusion relative to comparison sample 8 ([8]; i.v., all dose values, corresponding dosages): more than 10 times; change in vivo at 3 mg/kg [6]: -40%
CCCCn1cnc2c1c(=O)n(CCCCC(C)=O)c(=O)n2C [Sample 5, 1-(5-Oxohexyl)-3-methyl-7-(n-butyl)-xanthine]	–	–	–	250 to 500 mg/kg	–	–	-100%	–	-69%	0	–	0	1.3 min	+2.50	3.0 min	+2.40	-100%	0	1.3 min	+2.55	Change of the bronchospasm in % against acrotonine ([2]; 5 mg/kg i.v.): -70%; change in vivo at 5 mg/kg ([4]; Cavia porcellus, iv, 2 min, 5 mg/kg i.v., 2 min. i.p.): -42%; Cerebral blood perfusion relative to comparison sample 8 ([8]; 1 mg/kg i.v.): nearly six times higher; Cerebral blood perfusion relative to comparison sample 8 ([8]; 5 mg/kg i.v.): about three times higher; change in vivo at 5 mg/kg ([6]; 5 mg/kg i.v.): -100%
CCCCCCCCCCn1cnc2c1c(=O)n(CCCCC(C)=O)c(=O)n2C [Sample 6, 1-(5-oxohexyl)-3-methyl-7-(n-decyl)-xanthine]	–	–	–	500 mg/kg	–	–	–	–	–	0	–	–	0.2 min	+1.40	–	–	–	–	–	–	Change of the bronchospasm in % against acrotonine [2, 10]: -50%; change in vivo at 10 mg/kg [4, 12]: -40%; Muscular blood perfusion half-life ([7]; 3 mg/kg i.v.): 4.00 min; Muscular blood perfusion Δλ (change of blood perfusion) ([7]; 3 mg/kg i.v.): +0.30; Cerebral blood perfusion half-life ([8]; 3 mg/kg i.v.): 0.5 min; Cerebral blood perfusion Δλ (change of blood perfusion) ([8]; 3 mg/kg i.v.): +2.8; change in vivo at 10 mg/kg ([6]; sample in propanediol): -50%
CCn1cnc2c1c(=O)n(CCCCC(C)=O)c(=O)n2C [Sample 7, 1-(5-oxohexyl)-3-methyl-7-ethyl-xanthine]	–	–	–	250 to 500 mg/kg	two times as strong	-42%	-81%	-47%	-90%	+0.22	0.50 min	+0.20	1.5 min	+2.46	8.2 min	+8.07	-96%	+0.10	5.0 min	+5.17	solubility [1]: ~20 mg/mL (≈ 68.4 mM); Broncholytic effect against histamine compared with sample 8 [4]: improved broncholytic effect against histamine; Muscular blood perfusion half-life ([7]; 1 mg/kg i.v.): 0.40 min; Muscular blood perfusion half-life ([7]; 2 mg/kg i.v.): 5.00 min; Minimum concentration for partial lysis ([5]; 24 hours incubation): 50 mmol; Minimum concentration for partial lysis ([5]; 48 hours incubation (bracket)): 25 mmol; Cerebral blood perfusion relative to comparison sample 8 ([8]; 1 mg/kg i.v.): about five times higher; Half-life (cerebral) relative to comparison sample 8 ([8]; 1 mg/kg i.v.): 1.5 times; Cerebral blood perfusion relative to comparison sample 8 ([8]; 5 mg/kg i.v.): about nine times higher; Half-life (cerebral) relative to comparison sample 8 ([8]; 5 mg/kg i.v.): more than three times longer; change in vivo at 3 mg/kg [6]: -28%
